Assay results published in ChEMBL document CHEMBL4406878, “Antiviral efficacy of bromo-anilino substituents of 4,5-dihydrofuran-3-carboxylate compound CW-33 against Japanese encephalitis virus” (Bioorg Med Chem Lett, 2019).
The source made the active and inactive calls. The rule behind the calls is not given here.

Tests used:
[1] = system: Japanese encephalitis virus; assay: Antiviral activity against Japanese encephalitis virus infected in human TE671 cells assessed as reduction in virus-induced cytopathic effect at 10 to 100 uM treated immediately post-infection measured at 36 hrs post-infection by inverted microscopic analysis; type: functional, organism-based
[2] = system: Japanese encephalitis virus; assay: Antiviral activity against Japanese encephalitis virus infected in human TE671 cells assessed as decline in infected cell apoptotic fraction by measuring proportion of cells at subG1 phase treated immediately post-infection measured at 36 hrs post-infection by PI-staining based flow cytometric analysis; type: functional, organism-based; conditions: for IC50: TE-671, 36 h
[3] = Cytotoxicity against human TE671 cells assessed as reduction in cell viability after 48 hrs by MTT assay; type: cell-based, TE-671
[4] = system: Japanese encephalitis virus; assay: Antiviral activity against Japanese encephalitis virus infected in human TE671 cells assessed as reduction in virus infectivity by measuring decrease in NS3-positive cells treated immediately post-infection measured after 24 hrs by DAPI-staining based immunofluorescence analysis; type: functional, organism-based; conditions: for IC50: TE-671, 24 h
[5] = system: Japanese encephalitis virus; assay: Inhibition of synthesis of Japanese encephalitis virus RNA genome transfected as EGFP replicon in human TE671 cells assessed as lowered ratio of negative to positive sense strand RNA at 10 uM treated at 1 hr post-transfection and measured at 36 hrs post treatment by RT-PCR analysis; type: functional, organism-based
[6] = system: Japanese encephalitis virus; assay: (§1) Antiviral activity against Japanese encephalitis virus infected in human TE671 cells assessed as reduction in virus entry at late stage by measuring decrease in NS3-positive cells at 1 to 10 uM treated at 1 hr post-infection followed by virus/compound mixture wash-out at 1 hr post-incubation followed by culturing of cells for 24 hrs by DAPI-staining based immunofluorescence analysis; type: functional, organism-based
[7] = Therapeutic index, ratio of CC50 for human TE671 cells to IC50 for antiviral activity against Japanese encephalitis virus infected in human TE671 cells assessed as reduction in virus yield by plaque assay; type: toxicity, cell-based; conditions: read-out: Ratio CC50/IC50
[8] = system: Japanese encephalitis virus; assay: Antiviral activity against Japanese encephalitis virus infected in human TE671 cells assessed as inhibition of extracellular viral particles production by measuring reduction in virus yield measured after 36 hrs by plaque assay; type: functional, organism-based; conditions: for IC50: TE-671, 36 h
[9] = system: Japanese encephalitis virus; assay: Antiviral activity against Japanese encephalitis virus infected in human TE671 cells assessed as reduction in viral yield treated immediately post-viral infection measured at 72 hrs post-infection by plaque assay; type: functional, organism-based; conditions: TE-671, 72 h
[10] = system: Enterovirus A71; assay: Antiviral activity against Enterovirus A71 infected in human RD cells assessed as reduction in viral yield measured at 48 hrs post-infection by plaque reduction assay; type: functional, organism-based; conditions: Enterovirus A
[11] = system: Japanese encephalitis virus; assay: Antiviral activity against Japanese encephalitis virus infected in hamster BHK-21 cells assessed as reduction in viral yield treated immediately post-viral infection measured at 72 hrs post-infection by plaque assay; type: functional, organism-based; conditions: BHK-21, 72 h
[12] = system: Japanese encephalitis virus; assay: as §1, with “cells” for “cells at 1 to 10 uM”; type: functional, organism-based; conditions: TE-671
[13] = system: Japanese encephalitis virus; assay: as §1, with “early” for “late”, “cells” for “cells at 1 to 10 uM”, “immediately after viral infection” for “at 1 hr post-infection”; type: functional, organism-based; conditions: TE-671
[14] = system: Japanese encephalitis virus; assay: Antiviral activity against Japanese encephalitis virus infected in human TE671 cells assessed as inhibition of intracellular virion production at 10 uM measured at 24 to 48 hrs post-infection by plaque assay; type: functional, organism-based

## CCOC(=O)C1=C(Nc2ccc(Cl)cc2)OCC1=O
[1]
  inhibition: Active
[2]
  inhibition: inactive
[3]
  CC50 at 48 h: > 100 µM

## CCOC(=O)C1=C(Nc2ccc(Br)cc2)OCC1=O
[4]
  inhibition: Dose-dependent effect
  IC50: 0.4 µM
[5]
  inhibition: inactive
[1]
  inhibition: Active
[2]
  inhibition: Dose-dependent effect
  IC50: 2 µM
[6]
  inhibition: Active
[7]
  selectivity ratio: 16.6
[3]
  CC50 at 48 h: 129 µM
[8]
  inhibition: Dose-dependent effect
  IC50: 7.8 µM

## CCOC(=O)C1=C(Nc2cccc(Br)c2)OCC1=O
[4]
  inhibition: Dose-dependent effect
  IC50: 3.2 µM
[5]
  inhibition: Active
[1]
  inhibition: Active
[2]
  inhibition: Dose-dependent effect
  IC50: 3.1 µM
[6]
  inhibition: Active
[7]
  selectivity ratio: 12.4
[3]
  CC50 at 48 h: 151 µM
[8]
  inhibition: Dose-dependent effect
  IC50: 12.1 µM

## CCOC(=O)C1=C(Nc2cc(C)cc(C)c2)OCC1=O
[9]
  IC50: 12.7 µM
[10]
  IC50: 200 µM
[11]
  IC50: 12.7 µM

## CCOC(=O)C1=C(Nc2cccc(Cl)c2)OCC1=O
[1]
  inhibition: Active
[2]
  inhibition: inactive
[3]
  CC50 at 48 h: > 100 µM

## CCOC(=O)C1=C(Nc2ccccc2Cl)OCC1=O
[1]
  inhibition: Active
[2]
  inhibition: Dose-dependent effect
  IC50: 50.5 µM
[3]
  CC50 at 48 h: > 100 µM

## CCOC(=O)C1=C(Nc2ccccc2Br)OCC1=O
[4]
  inhibition: Dose-dependent effect
  IC50: 0.2 µM
[12]
  IC50: 10.2 µM
[13]
  IC50: 0.2 µM
[5]
  inhibition: Active
[1]
  inhibition: Active
[2]
  inhibition: Dose-dependent effect
  IC50: 3.2 µM
[14]
  inhibition: Active
[7]
  selectivity ratio: 50.2
[3]
  CC50 at 48 h: 232 µM
[8]
  inhibition: Dose-dependent effect
  IC50: 4.6 µM
